According to the supplement of paper PMC10307832:

How the values were obtained:
Assay in all cases: relative viability (nuclei count vs DMSO), 5 days (fraction); higher = more cells survive
[1] = compound: CO[C@@H]1[C@H](N(C)C(=O)c2ccccc2)C[C@H]2O[C@]1(C)n1c3ccccc3c3c4c(c5c6ccccc6n2c5c31)C(=O)NC4 [Midostaurin] + CS(=O)(=O)CCNCc1ccc(-c2ccc3ncnc(Nc4ccc(OCc5cccc(F)c5)c(Cl)c4)c3c2)o1 [Lapatinib] (partner 2 µM)
Summary of the method: (§1)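 A single step with final 0.05% Triton X-100, 1% formaldehyde and 1 ug/ml Hoechst fixed the cells and stained nuclei 5 days after treatment. Lung cancer cell lines in 1536-well plates had been treated by pin tool the day after seeding with one drug alone or a fixed anchor-drug dose plus five library-drug doses (not always all listed) in √10 steps, and nuclei were counted on 4× images. Relative viability is the ratio of nuclei in treated wells to nuclei in vehicle wells, taken as the median of duplicate plates.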

[2] = compound: CO[C@@H]1[C@H](N(C)C(=O)c2ccccc2)C[C@H]2O[C@]1(C)n1c3ccccc3c3c4c(c5c6ccccc6n2c5c31)C(=O)NC4 [Midostaurin] + CS(=O)(=O)N1CCN(Cc2cc3nc(-c4cccc5[nH]ncc45)nc(N4CCOCC4)c3s2)CC1 [Pictilisib] (partner 1 µM)
Summary of the method: as §1

[3] = compound: COc1cc(-c2nn([C@H]3CC[C@H](N4CCN(C(C)=O)CC4)CC3)c3ncnc(N)c23)ccc1NC(=O)c1cc2ccccc2n1C + CS(=O)(=O)CCNCc1ccc(-c2ccc3ncnc(Nc4ccc(OCc5cccc(F)c5)c(Cl)c4)c3c2)o1 [Lapatinib] (partner 2 µM)
Summary of the method: as §1

[4] = compound: COc1cc(-c2nn([C@H]3CC[C@H](N4CCN(C(C)=O)CC4)CC3)c3ncnc(N)c23)ccc1NC(=O)c1cc2ccccc2n1C + Cc1nc(NC(=O)N2CCC[C@H]2C(N)=O)sc1-c1ccnc(C(C)(C)C(F)(F)F)c1 [Alpelisib] (partner 2 µM)
Summary of the method: as §1

[5] = compound: COc1cc(-c2nn([C@H]3CC[C@H](N4CCN(C(C)=O)CC4)CC3)c3ncnc(N)c23)ccc1NC(=O)c1cc2ccccc2n1C + N=C(N)NC(=N)NCCc1ccccc1 [Phenformin] (partner 250 µM)
Summary of the method: as §1

Cell Line	relative viability ([1]; first compound 0.01 µM)	relative viability ([1]; first compound 0.03162 µM)	relative viability ([1]; first compound 0.1 µM)	relative viability ([1]; first compound 0.3162 µM)	relative viability ([2]; first compound 0.01 µM)	relative viability ([2]; first compound 0.03162 µM)	relative viability ([2]; first compound 0.1 µM)	relative viability ([2]; first compound 0.3162 µM)	relative viability ([3]; first compound 0.0128 µM)	relative viability ([3]; first compound 0.04048 µM)	relative viability ([3]; first compound 0.128 µM)	relative viability ([3]; first compound 1.28 µM)	relative viability ([4]; first compound 0.0128 µM)	relative viability ([4]; first compound 0.04048 µM)	relative viability ([4]; first compound 0.128 µM)	relative viability ([4]; first compound 1.28 µM)	relative viability ([5]; first compound 0.0128 µM)	relative viability ([5]; first compound 0.04048 µM)	relative viability ([5]; first compound 0.128 µM)	relative viability ([5]; first compound 1.28 µM)
NCI-H1793	0.971	0.715	0.767	0.75	0.378	0.097	0.217	0.49	1.01	0.501	0.434	0.621	0.734	0.682	0.595	0.442	0.388	0.252	0.317	0.289
NCI-H1734	1.01	1.1	1.07	1.12	0.465	0.424	0.496	0.303	1.12	1.04	0.959	0.871	0.684	0.636	0.716	0.573	0.331	0.297	0.391	0.379
LXF-289	0.92	0.888	0.866	0.951	0.812	0.766	0.764	0.598	1.01	0.86	0.876	1.02	1.1	1.03	1.04	0.958	0.545	0.497	0.492	0.46
H3255	0.35	0.282	0.259	0.22	0.503	0.487	0.471	0.459	0.294	0.27	0.238	0.176	0.886	0.615	0.607	0.433	0.347	0.297	0.36	0.282
201T	1.06	0.982	1.07	1.08	0.707	0.571	0.659	0.722	1.11	1.04	1	0.915	0.996	1.09	0.908	0.591	0.448	0.446	0.401	0.353
NCI-H2126	0.753	0.687	0.808	0.833	0.541	0.441	0.499	0.523	0.801	0.859	0.718	0.68	0.757	0.858	0.746	0.536	0.534	0.501	0.539	0.435
HOP-62	1.02	0.994	1.14	1.06	0.804	0.641	0.735	1.11	1.09	0.891	0.865	1.03	1.04	0.907	0.952	0.774	0.712	0.657	0.656	0.709
CAL-12T	0.726	0.447	0.603	0.498	0.457	0.417	0.334	0.413	0.615	0.686	0.659	0.384	1.32	1.25	1.34	0.998	0.588	0.465	0.572	0.416
NCI-H520	0.866	0.942	0.762	0.781	0.257	0.239	0.3	0.362	0.818	0.745	0.685	0.646	0.881	0.908	0.697	0.471	0.45	0.521	0.566	0.425
NCI-H1755	1.03	0.976	0.903	0.917	0.397	0.345	0.407	0.332	1.17	0.967	0.974	1.05	1.04	0.992	0.884	0.656	0.647	0.547	0.592	0.614
NCI-H2023	0.851	0.621	0.777	0.555	0.235	0.249	0.208	0.186	0.856	0.782	0.923	0.845	0.607	0.651	0.546	0.521	0.404	0.426	0.355	0.323
NCI-H2009	0.811	0.823	0.902	0.861	0.891	0.833	0.752	0.555	1.26	0.438	0.961	0.888	1.15	1.2	1.16	1.08	0.517	0.433	0.511	0.515
